By solubility is commonly meant the concentration that dissolves in the medium under given conditions.

Results on two compounds are retold here after patent US20070264319A1, “Transdermal Antiemesis Delivery System, Method and Composition Therefor” (priority 2004, published 2007).

Structures can show the parent of a compound that is named as a salt.

For data set [1] the following is noted: water and normal saline at 20° C.; cited from earlier work.
Data set [2] is described as follows: Solubility of granisetron base in penetration enhancers. The data set is classed as physicochemical. The note with it: thermodynamic from solid. The procedure: The incorporation of granisetron base in various penetration enhancers and solvents was determined by incrementally adding small amounts of the drug to about 100 ml of liquid penetration enhancer, and agitating the liquid mixture until the drug was no longer incorporated (i.e., saturation) to provide an apparently saturated liquid mixture at an ambient room temperature in the range of about 20 to about 25° C. Each of the saturated liquid mixtures was agitated by inverting for about 24 hours at ambient room temperature, the solution was centrifuged and its supernatant was diluted in HPLC mobile phase and assayed by the HPLC method as described in Example 2.

For data set [3] the following is noted: typical oral dose of about 1 to about 2 mg twice daily; cited from earlier work.

Turning to `CN1C2CCCC1CC(NC(=O)c1nn(C)c3ccccc13)C2` (centres unmarked) [Granisetron hydrochloride], the solubility entry in data set [1] was “soluble in water and normal saline”.

Take `CN1C2CCCC1CC(NC(=O)c1nn(C)c3ccccc13)C2` (centres unmarked) [Granisetron]: the solubility at 24 h is 0.00546 mg/mL in data set [2] (oil or lipid, in Isopropyl myristate, about 20 to about 25° C.); 0.0412 mg/mL in data set [2] (organic solvent or mixture, in BRIJ ® 30, about 20 to about 25° C.); 0.00717 mg/mL in data set [2] (organic solvent or mixture, in DDAIP (free base), about 20 to about 25° C.); 0.0866 mg/mL in data set [2] (organic solvent or mixture, in DGME (transcutol), about 20 to about 25° C.); 0.00859 mg/mL in data set [2] (organic solvent or mixture, in Limonene, about 20 to about 25° C.); 0.196 mg/mL in data set [2] (organic solvent or mixture, in NMP, about 20 to about 25° C.). In addition, the solubility at 24 h in data set [2] (organic solvent or mixture, in PEG-400, ambient room temperature about 20 to about 25° C.) is 0.0457 mg/mL; in data set [2] (organic solvent or mixture, in Propylene glycol, about 20 to about 25° C.) it was 0.0317 mg/mL; in data set [2] (organic solvent or mixture, in SPAN ® 20, about 20 to about 25° C.), 0.0329 mg/mL. The elimination half-life entry in data set [3] was “about 7 hours”.
